Data as given in ChEMBL document CHEMBL1149893, “Recent developments of carbonic anhydrase inhibitors as potential anticancer drugs” (J Med Chem, 2008).

Biological target: Carbonic anhydrase 9 (Homo sapiens, UniProt Q16790)

Ki	Structure (SMILES)
0.023 µM	COC(=O)[C@H]1O[C@@H](On2cc(CNC(=O)c3ccc(S(N)(=O)=O)cc3)nn2)[C@H](O)[C@@H](O)[C@@H]1O
0.076 µM	CC(=O)OC[C@H]1O[C@@H](On2cc(CNC(=O)c3ccc(S(N)(=O)=O)cc3)nn2)[C@H](OC(C)=O)[C@@H](OC(C)=O)[C@@H]1OC(C)=O
